What was measured:
[1] = Rat pharmacokinetic study; format: in vivo, male Sprague-Dawley rats; details: male, Sprague-Dawley, plasma, PO, single dose 5.8 mg/kg
Experimental: For rat pharmacokinetic studies, male Sprague-Dawley rats were housed individually and fasted overnight before use. The animal dosing experiments were carried out in accordance to the National Institutes of Health Guide to the Care and Use of Laboratory Animals and the Animal Welfare Act. For Compound I, a single dose of 5.8 mg/kg was administered to each rat in two groups (n=5/group) via intravenous (IV) and oral (PO) administration, respectively. The vehicle used for IV administration was 10% (v/v) CremophorEL in 90% PBS. The vehicle used for PO administration was 0.5% (w/v) methylcellulose in normal saline solution. Blood samples were collected at specified time-points (pre-dose, 30 minutes, 1 hour, 2 hours, 4 hours, 7 hours, 8 hours, 12 hours, 24 hours) following administration to individual rats within IV and PO group. Blood samples were clotted on ice immediately, plasma samples were then isolated by centrifugation and stored frozen (−80° C.) until further analysis. The concentrations of Compound I were individually determined by LC/MS/MS assay. Various pharmacokinetic parameters were calculated using Phoenix™ WinNonlin® software. To quantify the bioconversion efficiency of the Compound I in the circulation system, the bioavailability of Compound I after PO administration was calculated.

[2] = test system: SNL (Spinal Nerve Ligation) rats; assay: Mechanical allodynia in SNL (spinal nerve ligation) rats, von Frey; format: in vivo, Sprague-Dawley rats; details: 5 mg/kg i.p., 0.5 h time point post dose
Experimental: SNL model is a commonly used model to measure surgical induced neuropathic pain. The goal of the study was to evaluate the efficacy of Compound I to attenuate mechanical allodynia in SNL model in Sprague-Dawley rats.
In this study, SNL model was created following typical procedure and the approved drug Tapentadol (XW-TAP) was used as reference compound. Gabapentin was applied as positive control for model validation.
1) 5 mg/kg Compound I: Added 17.13 mg Compound I to 16.96 mL 0.5% methylcellulose in normal saline solution, vortexed to fully mix.
1) Rats were placed individually in a plastic enclosure with a mesh bottom which allowed full access to the paws. Rats were acclimated for 15 min prior to testing.
2) After acclimation, the mid-plantar hind paw was touched with one of a series of eight von Frey hairs with logarithmically incremental stiffness as follows: 3.61 (0.4 g), 3.84 (0.6 g), 4.08 (1 g), 4.31 (2 g), 4.56 (4 g), 4.74 (6 g), 4.93 (8 g) and 5.18 (15 g). The von Frey hairs were presented perpendicularly to the plantar surface with sufficient force to cause slight buckling against the paw and held for approximately 6-8 s. Stimulation was presented at intervals of 5 seconds, allowing for apparent resolution of any behavioral responses to previous stimulus. A positive response was noted if the paw was sharply withdrawn. […]

[3] = molecular target: T1, human Nav1.7 voltage-gated sodium channels (Homo sapiens, UniProt Q15858); assay: Manual whole-cell patch-clamp, inhibition of hNav1.7 sodium current; format: cell-based; details: HEK293 cells stably transfected with SCN9A, holding potential -80 mV, peak current
T1 construct: expressed in transfected cells; host or cells: HEK293
T1 sequence (Q15858 whole entry): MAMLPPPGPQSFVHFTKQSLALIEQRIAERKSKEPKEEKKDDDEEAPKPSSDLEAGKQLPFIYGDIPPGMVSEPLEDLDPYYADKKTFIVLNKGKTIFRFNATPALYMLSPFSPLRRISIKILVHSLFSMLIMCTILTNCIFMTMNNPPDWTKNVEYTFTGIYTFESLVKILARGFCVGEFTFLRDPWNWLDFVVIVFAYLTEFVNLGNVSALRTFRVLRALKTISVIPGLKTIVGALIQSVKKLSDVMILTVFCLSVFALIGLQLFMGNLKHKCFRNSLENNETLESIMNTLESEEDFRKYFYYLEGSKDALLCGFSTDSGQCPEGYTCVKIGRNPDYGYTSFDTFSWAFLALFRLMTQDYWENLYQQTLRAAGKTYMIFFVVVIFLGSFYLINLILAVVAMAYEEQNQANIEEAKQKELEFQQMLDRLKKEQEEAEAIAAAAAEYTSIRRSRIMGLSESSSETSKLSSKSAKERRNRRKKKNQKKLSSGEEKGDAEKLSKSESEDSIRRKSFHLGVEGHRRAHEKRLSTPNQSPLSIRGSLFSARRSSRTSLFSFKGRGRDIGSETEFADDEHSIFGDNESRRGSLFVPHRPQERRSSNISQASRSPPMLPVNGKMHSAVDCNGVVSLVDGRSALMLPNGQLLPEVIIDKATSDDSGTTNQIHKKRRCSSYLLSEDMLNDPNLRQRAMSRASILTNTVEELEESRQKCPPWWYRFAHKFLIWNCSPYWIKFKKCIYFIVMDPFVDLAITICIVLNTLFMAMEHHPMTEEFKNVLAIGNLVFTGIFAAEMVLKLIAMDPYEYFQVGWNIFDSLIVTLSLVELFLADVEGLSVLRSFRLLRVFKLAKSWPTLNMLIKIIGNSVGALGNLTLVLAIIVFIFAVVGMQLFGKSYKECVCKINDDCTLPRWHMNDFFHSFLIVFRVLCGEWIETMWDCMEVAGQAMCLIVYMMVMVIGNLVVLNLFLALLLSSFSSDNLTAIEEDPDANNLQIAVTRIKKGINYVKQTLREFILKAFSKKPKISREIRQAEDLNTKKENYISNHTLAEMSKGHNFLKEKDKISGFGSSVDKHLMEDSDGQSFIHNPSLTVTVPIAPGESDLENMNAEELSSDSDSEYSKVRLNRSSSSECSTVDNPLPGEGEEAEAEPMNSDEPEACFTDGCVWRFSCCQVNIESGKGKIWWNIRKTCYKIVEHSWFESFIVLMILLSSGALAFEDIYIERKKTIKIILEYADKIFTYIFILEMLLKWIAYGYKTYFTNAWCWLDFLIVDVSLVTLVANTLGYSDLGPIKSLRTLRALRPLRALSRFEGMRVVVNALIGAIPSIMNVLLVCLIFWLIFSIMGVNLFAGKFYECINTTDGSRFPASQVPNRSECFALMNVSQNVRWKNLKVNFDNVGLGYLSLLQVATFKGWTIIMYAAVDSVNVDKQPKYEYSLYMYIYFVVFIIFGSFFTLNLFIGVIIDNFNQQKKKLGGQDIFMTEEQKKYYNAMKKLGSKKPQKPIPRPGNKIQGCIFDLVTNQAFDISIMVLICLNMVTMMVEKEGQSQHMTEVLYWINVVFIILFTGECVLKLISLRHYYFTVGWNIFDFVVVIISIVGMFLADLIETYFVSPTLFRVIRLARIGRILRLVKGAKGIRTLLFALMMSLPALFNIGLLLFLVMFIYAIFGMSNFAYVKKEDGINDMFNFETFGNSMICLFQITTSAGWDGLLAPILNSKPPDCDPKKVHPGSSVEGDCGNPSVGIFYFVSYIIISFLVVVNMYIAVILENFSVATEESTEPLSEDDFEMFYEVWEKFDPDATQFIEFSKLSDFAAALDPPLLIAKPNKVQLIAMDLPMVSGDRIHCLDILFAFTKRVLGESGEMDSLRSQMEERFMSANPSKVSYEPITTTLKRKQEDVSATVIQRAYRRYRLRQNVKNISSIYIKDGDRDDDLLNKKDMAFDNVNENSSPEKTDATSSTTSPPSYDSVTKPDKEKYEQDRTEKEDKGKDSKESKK
Experimental: (§1) The potential inhibitory effect of Compound I-XXII on human voltage-gated sodium channels (hNav1.2/1.7) was evaluated by manual patch-clamp system according to the procedures as described. HEK293 cell line stably transfected with SCN2A/SCN9A gene was employed in this study and Tetrodotoxin (TTX) was used as a positive control to ensure the good quality of the assay.
(§2) General procedure: HEK 293 cells were stably transfected with human Nav1.2 or Nav1.7 voltage-gated sodium channels. The cells are routinely maintained in culture medium containing in 90% DMEM, 10% FBS, 100 U/mL Penicillin-Streptomycin and […] of G418. Before the assay, the cells were resuspended and plated onto the coverslips at 5×10^5 cells/per 6 cm cell culture dish for use. The voltage-gated Nav1.2 and Nav1.7 channel current was recorded at room temperature (25° C.) from randomly selected transfected cells under whole-cell patch clamp systems equipped with EPC10 USB (HEKA) or Multiclamp 700B amplifier (Molecular Devices), while electrical data was digitalized by Digidata1440A with sampling frequency over 10 kHz and acquired with Patchmaster or pClamp10 respectively. The glass electrode with resistance ranged from 2 to 3.5 MW was prepared by micropipette puller P-97 (Sutter Instrument) and filled with internal solutions (in mM): 140 KCl, 2 MgCl2, 10 EGTA, 10 HEPES and 5 MgATP (pH adjusted to 7.35 with KOH), while cells were bathed in extracellular solutions (in mM) 132 NaCl, 4 KCl, 3 CaCl2, 0.5 MgCl2, 11.1 glucose, and 10 HEPES (pH adjusted to 7.35 with NaOH). After rupture, the series membrane resistance was at least 50% compensated and capacitance was also compensated as well. All cells were voltage-clamped to a holding potential of −80 mV unless otherwise specified. The inward sodium currents were elicited by a 20-ms voltage pulse to 10 mV from −80 mV applied every 15 s. The sodium current was initially recorded for at least 120 seconds to assess the current stability, and only cells with recording parameters over acceptance criteria was finally used to assess the dose response to the local perfusion of Compound I-XXII. The blank vehicle was firstly applied to the patched cells in order to establish the recording baseline. After at least 5 min when the elicited sodium currents reaches stabilization, the test compound was perfused into recording chamber accumulatively from low to high concentrations. The positive control article, Tetrodotoxin (TTX), was also used to challenge same batch of cell in order to ensure the good performance of the recording system. All experiments were performed in triplicate for IC50 determination. Upon data acquisition, the PatchMaster or pClamfit software were used to extract the peak current from the original raw data, while the peak current inhibition was defined by equation as shown below.
(§3) The dose response curve for the test compound was plotted with % inhibition against the dose concentration of the test compound using Graphpad Prism 5.0 software, and then the data was fit to a sigmoid dose-response curve with variable slope for IC50 determination.

[4] = molecular target: T2, human Nav1.2 voltage-gated sodium channels (Homo sapiens, UniProt Q99250); assay: Manual whole-cell patch-clamp, inhibition of hNav1.2 sodium current; format: cell-based; details: HEK293 cells stably transfected with SCN2A, holding potential -80 mV, peak current
T2 construct: expressed in transfected cells; host or cells: HEK293
T2 sequence (Q99250 whole entry): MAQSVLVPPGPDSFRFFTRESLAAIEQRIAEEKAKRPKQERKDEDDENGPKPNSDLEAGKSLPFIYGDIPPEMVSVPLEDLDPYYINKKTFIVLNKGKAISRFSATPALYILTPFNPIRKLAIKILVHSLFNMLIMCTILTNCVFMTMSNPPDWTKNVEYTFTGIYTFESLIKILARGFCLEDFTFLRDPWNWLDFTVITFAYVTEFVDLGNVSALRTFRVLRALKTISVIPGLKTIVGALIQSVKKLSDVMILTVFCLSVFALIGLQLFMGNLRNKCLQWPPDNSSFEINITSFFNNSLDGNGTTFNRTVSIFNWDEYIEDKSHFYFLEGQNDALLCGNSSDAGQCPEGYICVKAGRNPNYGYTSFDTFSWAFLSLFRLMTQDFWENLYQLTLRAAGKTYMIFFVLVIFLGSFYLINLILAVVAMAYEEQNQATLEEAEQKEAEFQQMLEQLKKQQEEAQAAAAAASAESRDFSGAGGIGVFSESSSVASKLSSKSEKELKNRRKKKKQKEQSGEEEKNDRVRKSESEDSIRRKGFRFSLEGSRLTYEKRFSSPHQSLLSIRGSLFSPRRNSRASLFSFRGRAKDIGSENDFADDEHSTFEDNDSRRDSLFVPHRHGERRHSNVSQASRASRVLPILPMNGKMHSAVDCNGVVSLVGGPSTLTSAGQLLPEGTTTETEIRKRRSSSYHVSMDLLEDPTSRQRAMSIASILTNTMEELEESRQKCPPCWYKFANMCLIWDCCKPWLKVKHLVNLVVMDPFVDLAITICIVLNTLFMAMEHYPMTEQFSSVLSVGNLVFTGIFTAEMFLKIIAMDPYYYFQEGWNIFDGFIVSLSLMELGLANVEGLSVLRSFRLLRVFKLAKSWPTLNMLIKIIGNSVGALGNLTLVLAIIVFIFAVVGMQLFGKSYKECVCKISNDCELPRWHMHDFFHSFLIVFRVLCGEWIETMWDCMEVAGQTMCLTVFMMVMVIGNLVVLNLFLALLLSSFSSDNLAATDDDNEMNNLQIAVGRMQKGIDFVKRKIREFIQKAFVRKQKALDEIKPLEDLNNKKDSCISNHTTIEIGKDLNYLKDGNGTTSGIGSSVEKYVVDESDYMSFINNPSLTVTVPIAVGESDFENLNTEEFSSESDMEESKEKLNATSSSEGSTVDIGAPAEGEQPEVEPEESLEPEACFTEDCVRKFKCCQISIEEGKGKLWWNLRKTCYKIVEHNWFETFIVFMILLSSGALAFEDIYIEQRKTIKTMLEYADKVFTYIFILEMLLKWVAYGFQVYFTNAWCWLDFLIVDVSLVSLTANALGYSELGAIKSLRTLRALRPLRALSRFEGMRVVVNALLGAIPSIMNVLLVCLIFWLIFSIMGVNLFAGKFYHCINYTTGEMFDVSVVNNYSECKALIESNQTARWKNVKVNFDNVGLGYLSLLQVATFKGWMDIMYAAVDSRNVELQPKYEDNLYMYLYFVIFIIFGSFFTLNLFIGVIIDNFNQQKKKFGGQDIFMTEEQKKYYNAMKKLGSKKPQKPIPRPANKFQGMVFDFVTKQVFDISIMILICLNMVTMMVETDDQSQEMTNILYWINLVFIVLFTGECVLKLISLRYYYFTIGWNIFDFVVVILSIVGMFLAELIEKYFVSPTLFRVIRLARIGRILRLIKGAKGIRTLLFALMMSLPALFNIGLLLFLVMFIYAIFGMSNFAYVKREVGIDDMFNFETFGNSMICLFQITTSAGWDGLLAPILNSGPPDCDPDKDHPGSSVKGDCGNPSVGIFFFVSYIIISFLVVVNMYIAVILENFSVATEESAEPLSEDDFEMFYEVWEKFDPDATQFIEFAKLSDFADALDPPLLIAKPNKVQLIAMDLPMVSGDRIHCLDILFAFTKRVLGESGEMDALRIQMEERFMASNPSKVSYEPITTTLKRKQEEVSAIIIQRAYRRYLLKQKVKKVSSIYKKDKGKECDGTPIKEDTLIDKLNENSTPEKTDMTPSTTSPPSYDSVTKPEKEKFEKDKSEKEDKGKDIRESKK
Experimental: as §1, §2, §3

[5] = test system: metastatic melanoma; details: Phase 2, patients with metastatic melanoma; cited from earlier work

| IC50 [3] | IC50 [4] | SMILES | further results |
| --- | --- | --- | --- |
| 682 nM | 4670 nM | Nc1nc2ccc(S(F)(F)(F)(F)F)cc2s1 [Compound I, 6-(Pentafluorosulfanyl)benzo[d]thiazol-2-amine] | AUC(0-t) [1]: 7690 ng·h/mL; Cmax [1]: 942 ng/mL; Tmax [1]: 2.3 h; half-life [1]: 7.11 h; anti-allodynic effect on SNL-induced mechanical allodynia [2]: reversed SNL-induced mechanical allodynia |
| 1170 nM | 15300 nM | Nc1nc2ccc(SC(F)(F)F)cc2[se]1 [Compound IX, 6-((Trifluoromethyl)thio)benzo[d][1,3]selenazol-2-amine] | – |
| 722 nM | 4370 nM | Nc1nc2ccc(S(F)(F)(F)(F)F)cc2[se]1 [Compound V, 6-(Pentafluorosulfanyl)benzo[d][1,3]selenazol-2-amine] | – |
| 745 nM | 10100 nM | Nc1nc2ccc(C(F)(F)F)cc2[se]1 [Compound VI, 6-(Trifluoromethyl)benzo[d][1,3]selenazol-2-amine] | – |
| 1360 nM | 18000 nM | Nc1nc2ccc(OC(F)(F)F)cc2[se]1 [Compound VII, 6-(Trifluoromethoxy)benzo[d][1,3]selenazol-2-amine] | – |
| – | – | Nc1nc2ccc(OC(F)(F)F)cc2s1 [Riluzole] | RECIST grade [5]: no overall improvement of RECIST grade |

— patent US11639337B2, “Bicyclic heteroaryl derivatives and preparation and uses thereof” (XWPHARMA LTD., priority 2017, dated 2023)
